These results are taken from ChEMBL document CHEMBL1926599, “Bis(oxyphenylene)benzimidazoles: a novel class of anti-Plasmodium falciparum agents” (Bioorg Med Chem, 2011).

In one data set the test system is Trypanosoma cruzi. Put plainly: Antitrypanosomal activity against trypomastigote form of Trypanosoma cruzi Tulahuen C2C4 expressing Lac Z infected in rat L6 cells after 96 hrs by spectrophotometry. The data set is classed as functional, organism-based. The settings on record: Tulahuen C2C4, L6, 96 h.
The next data set deals with Plasmodium falciparum. Briefly: Antiplasmodial activity against chloroquine and pyrimethamine-resistant Plasmodium falciparum K1 assessed as inhibition of [3H]hypoxanthine incorporation incubated for 48 hrs prior to [3H] hypoxanthine addition measured after 24 hrs by liquid scintillation counting. In kind it is functional, organism-based.
For another data set, the system named is L6. Put plainly: Cytotoxicity against rat L6 cells after 72 hrs by resazurin-based spectrophotometric assay. The data set is classed as cell-based. The settings on record: L6, 72 h. (Alamar Blue is a resazurin reagent that responds to reducing activity.)
Another data set has as its system Leishmania donovani. Put plainly: Antileishmanial activity against Leishmania donovani MHOM-ET-67/L82 after 72 hrs by resazurin-based spectrophotometric assay. The settings on record: MHOM-ET-67/L82, 72 h. The data set is classed as functional, organism-based.
The nature of data set [1]: Selectivity ratio of IC50 for rat L6 cells to IC50 for Plasmodium falciparum K1. The data set is classed as ADME, cell-based. The settings on record: read-out: Ratio IC50.
Data set [2] relates to Trypanosoma brucei rhodesiense. Briefly: Antitrypanosomal activity against bloodstream form of Trypanosoma brucei rhodesiense STIB 900 after 70 hrs by resazurin-based spectrophotometric assay. In kind it is functional, organism-based. The following applies: STIB 900, 70 h.
For the next data set, the system named is Giardia intestinalis. Briefly: Antiprotozoal activity against Giardia intestinalis G1 after 70 hrs by resazurin-based spectrophotometric assay. In kind it is functional, organism-based. The settings on record: Giardia duodenalis, G1, 70 h.
The next data set has as its system Entamoeba histolytica. Briefly: Antiprotozoal activity against Entamoeba histolytica Hk-9 trophozoites after 70 hrs by resazurin-based spectrophotometric assay. The data set is classed as functional, organism-based. The following applies: Hk-9, 70 h.
The nature of data set [3]: Inhibition of beta-hematin formation in aqueous acetate buffer. The data set is classed as functional.
A short description of data set [4]: Selectivity ratio of IC50 for rat L6 cells to IC50 for Entamoeba histolytica Hk-9. The data set is classed as ADME, cell-based. The following applies: read-out: Ratio IC50.

Calls of active or inactive are those of the source. The calls are words filed in the database; no cut-off is given here. Where only a bound is given, the exact number is not on record here.

By IC50 is commonly meant the concentration that gives 50% inhibition. Take `c1cc(OCOc2cccc(-c3nc4ccccc4[nH]3)c2)cc(-c2nc3ccccc3[nH]2)c1`: the IC50 with Trypanosoma cruzi worked out at 11.6 µM; with Plasmodium falciparum, 1.69 µM; with L6, 18.9 µM; with Leishmania donovani, 6.19 µM; in data set [2], 14.2 µM. For the same molecule, in data set [1], the selectivity ratio turned out to be 11.
Take `c1cc(OCCCCCCCCCOc2cccc(-c3nc4ccccc4[nH]3)c2)cc(-c2nc3ccccc3[nH]2)c1`: the IC50 in the data set with Trypanosoma cruzi is 4.98 µM; in the data set on Plasmodium falciparum, 0.57 µM; in the data set on L6 it was 21.9 µM; in the data set on Leishmania donovani, 6.59 µM; with Giardia intestinalis, 45.5 µM; in data set [2], 2.37 µM. The molecule also returned an IC50 in the data set with Entamoeba histolytica of 46.2 µM. The selectivity ratio in [1] stood at 39.
Consider `c1ccc2[nH]c(-c3ccc(OCCCCCCCOc4ccc(-c5nc6ccccc6[nH]5)cc4)cc3)nc2c1`, for which the IC50 is 14.8 µM in the data set with Trypanosoma cruzi; 0.23 µM in the data set on Plasmodium falciparum; 48.4 µM in the data set on L6; 1.53 µM with Leishmania donovani; 1.34 µM in the data set with Giardia intestinalis; 1.08 µM in data set [2]. The same molecule had an IC50 in the data set on Entamoeba histolytica of 21.7 µM. The selectivity ratio in data set [1] was 208. Besides, the inhibition entry in data set [3] was “Active”.
As to `c1ccc2[nH]c(-c3ccc(OCCCCCOc4ccc(-c5nc6ccccc6[nH]5)cc4)cc3)nc2c1`, the IC50 in the data set with Trypanosoma cruzi was found to be 2.42 µM; with Plasmodium falciparum, 0.27 µM; in the data set on L6 it was 6.82 µM; in the data set on Leishmania donovani it was 0.8 µM; in the data set on Giardia intestinalis, 0.82 µM; in [2] it was 1.02 µM. In addition, the midpoint of inhibition in the data set with Entamoeba histolytica, the IC50, lay at 22.7 µM. In data set [1], the selectivity ratio was determined as 26. Also, the inhibition entry in data set [3] was “Active”.
In the case of `c1ccc2[nH]c(-c3ccc(OCCOc4ccc(-c5nc6ccccc6[nH]5)cc4)cc3)nc2c1`, the IC50 in the data set with Trypanosoma cruzi is 133 µM; with Plasmodium falciparum it was 2.01 µM; in the data set on L6, 25.4 µM; in the data set on Leishmania donovani, > 202 µM; with Giardia intestinalis, 124 µM; in data set [2], 154 µM. Moreover, half-maximal inhibition in the data set on Entamoeba histolytica (IC50) required 191 µM. Further, in data set [1], the selectivity ratio came to 13.
`c1ccc2[nH]c(-c3ccc(OCCCCCCOc4ccc(-c5nc6ccccc6[nH]5)cc4)cc3)nc2c1`: the IC50 is 6.05 µM in the data set with Trypanosoma cruzi; 0.24 µM in the data set on Plasmodium falciparum; 9.61 µM with L6; 6.59 µM with Leishmania donovani; 3.58 µM in the data set with Giardia intestinalis; 7.22 µM in [2]. In the data set on Entamoeba histolytica, the IC50 is > 199 µM. Besides, the selectivity ratio in data set [1] turned out to be 40. Moreover, the inhibition result in data set [3] is “Active”.
As for `c1ccc2[nH]c(-c3ccc(OCCCCOc4ccc(-c5nc6ccccc6[nH]5)cc4)cc3)nc2c1`, the IC50 worked out at 5.75 µM with Trypanosoma cruzi; 0.44 µM in the data set with Plasmodium falciparum; 7.84 µM with L6; 3.25 µM with Leishmania donovani; 17.9 µM with Giardia intestinalis; 2.76 µM in [2]. It took 8.13 µM to reach half-maximal inhibition with Entamoeba histolytica (IC50). Further, the values for the selectivity ratio in [4] and in data set [1] were 1 and 18, respectively. In [3], the inhibition entry is “Active”.
Take `c1cc(OCCCCCCCOc2cccc(-c3nc4ccccc4[nH]3)c2)cc(-c2nc3ccccc3[nH]2)c1`: the IC50 was determined as 1.82 µM in the data set with Trypanosoma cruzi; 0.41 µM in the data set on Plasmodium falciparum; 118 µM in the data set with L6; 2.69 µM in the data set on Leishmania donovani; 25.8 µM with Giardia intestinalis; 1.37 µM in data set [2]. In the data set with Entamoeba histolytica, this molecule showed a concentration for half-maximal inhibition (IC50) of 56.7 µM. Moreover, the selectivity ratio in [1] amounted to 291. In addition, the inhibition result in data set [3] was “Active”.
`c1ccc2[nH]c(-c3ccc(OCCCCCCCCCCOc4ccc(-c5nc6ccccc6[nH]5)cc4)cc3)nc2c1`: the half-inhibitory concentration (IC50) with Trypanosoma cruzi was 88.5 µM; with Plasmodium falciparum, 0.18 µM; with L6 it was 46 µM; with Leishmania donovani, 124 µM; in the data set on Giardia intestinalis, 22.1 µM; in data set [2], 9.34 µM. This molecule displayed an IC50 in the data set on Entamoeba histolytica of 19.3 µM. Besides, the selectivity ratio in data set [1] amounted to 257.
In the case of `c1ccc(COc2ccc(-c3nc4ccccc4[nH]3)cc2)c(COc2ccc(-c3nc4ccccc4[nH]3)cc2)c1`, the IC50 in the data set on Trypanosoma cruzi was determined as 6.07 µM; in the data set with Plasmodium falciparum, 0.34 µM; in the data set on L6, 5.89 µM; with Leishmania donovani, 2.33 µM; in data set [2], 1.32 µM. For the same molecule, the selectivity ratio in data set [1] was 17.
For `c1cc(OCCCCOc2cccc(-c3nc4ccccc4[nH]3)c2)cc(-c2nc3ccccc3[nH]2)c1`, the IC50 in the data set on Trypanosoma cruzi was 23.9 µM; in the data set on Plasmodium falciparum it was 0.23 µM; in the data set on L6 it was 21.2 µM; in the data set with Leishmania donovani it was 9.99 µM; in the data set with Giardia intestinalis, 36 µM; in data set [2], 18.5 µM. This molecule also showed an IC50 with Entamoeba histolytica of 211 µM. The selectivity ratio in data set [1] was found to be 92. For the same molecule, the inhibition result in data set [3] was “Active”.
`c1cc(OCCCCCCCCOc2cccc(-c3nc4ccccc4[nH]3)c2)cc(-c2nc3ccccc3[nH]2)c1`: the IC50 amounted to 4.28 µM with Trypanosoma cruzi; 0.45 µM in the data set with Plasmodium falciparum; 13.1 µM in the data set with L6; 5.9 µM in the data set with Leishmania donovani; 52.4 µM with Giardia intestinalis; 4.5 µM in data set [2]. The molecule also showed an IC50 with Entamoeba histolytica of 23.5 µM. For the same molecule, the selectivity ratio in data set [1] is 29.
On to `Cc1ncc([N+](=O)[O-])n1CCO` [METRONIDAZOLE], for which the IC50 with Giardia intestinalis turned out to be 1.56 µM; with Entamoeba histolytica, 5.82 µM.
Regarding `c1cc(OCc2ccc(COc3cccc(-c4nc5ccccc5[nH]4)c3)cc2)cc(-c2nc3ccccc3[nH]2)c1`, the half-inhibitory concentration (IC50) in the data set with Trypanosoma cruzi was 10.9 µM; with Plasmodium falciparum, 0.19 µM; in the data set on L6 it was 10.4 µM; in the data set with Leishmania donovani, 8.44 µM; in data set [2], 24 µM. Moreover, the selectivity ratio in [1] worked out at 54.
As for `c1cc(OCCCCCCCCCCOc2cccc(-c3nc4ccccc4[nH]3)c2)cc(-c2nc3ccccc3[nH]2)c1`, the IC50 stood at 83.2 µM in the data set with Trypanosoma cruzi; 0.36 µM in the data set on Plasmodium falciparum; 72.2 µM with L6; 13.3 µM in the data set on Leishmania donovani; 172 µM in the data set on Giardia intestinalis; 2.08 µM in [2]. For the same molecule, the IC50 in the data set with Entamoeba histolytica was 22.2 µM. The selectivity ratio in data set [1] was 202.
`c1ccc2[nH]c(-c3ccc(OCc4ccc(COc5ccc(-c6nc7ccccc7[nH]6)cc5)cc4)cc3)nc2c1`: the IC50 in the data set with Trypanosoma cruzi amounted to 26.3 µM; in the data set on Plasmodium falciparum, 0.23 µM; in the data set with L6, 16 µM; with Leishmania donovani it was 0.8 µM; in data set [2] it was 2.12 µM. Moreover, in [1], the selectivity ratio is 70.
With `c1cc(OCc2ccccc2COc2cccc(-c3nc4ccccc4[nH]3)c2)cc(-c2nc3ccccc3[nH]2)c1`, the IC50 in the data set on Trypanosoma cruzi was 2.53 µM; in the data set on Plasmodium falciparum it was 0.34 µM; in the data set with L6 it was 7.02 µM; in the data set on Leishmania donovani, 3 µM; in data set [2], 2.66 µM. In addition, the selectivity ratio in data set [1] turned out to be 20.
Molecule `O=C(Cn1ccnc1[N+](=O)[O-])NCc1ccccc1` [BENZNIDAZOLE] came in with an IC50 with Trypanosoma cruzi of 1.13 µM.
`c1cc(OCCCCCCOc2cccc(-c3nc4ccccc4[nH]3)c2)cc(-c2nc3ccccc3[nH]2)c1`: the IC50 in the data set on Trypanosoma cruzi came to 3.88 µM; with Plasmodium falciparum, 0.28 µM; in the data set on L6, 7.98 µM; in the data set on Leishmania donovani, 2.57 µM; in the data set with Giardia intestinalis, 17.7 µM; in data set [2], 2.37 µM. Further, the IC50 in the data set with Entamoeba histolytica was found to be 73.7 µM. The selectivity ratio in data set [1] came out at 29.
For the molecule `c1cc(COc2cccc(-c3nc4ccccc4[nH]3)c2)cc(COc2cccc(-c3nc4ccccc4[nH]3)c2)c1`, the IC50 is 5.99 µM in the data set on Trypanosoma cruzi; 0.4 µM in the data set on Plasmodium falciparum; 79.6 µM with L6; 4.63 µM with Leishmania donovani; 3.6 µM in data set [2]. Besides, the selectivity ratio in data set [1] was 198.
As to `c1cc(OCCCCCOc2cccc(-c3nc4ccccc4[nH]3)c2)cc(-c2nc3ccccc3[nH]2)c1`, the half-inhibitory concentration (IC50) with Trypanosoma cruzi was 1.7 µM; with Plasmodium falciparum, 0.34 µM; in the data set on L6 it was 3.56 µM; with Leishmania donovani, 1.19 µM; in the data set with Giardia intestinalis, 18.5 µM; in [2] it was 1.33 µM. The IC50 in the data set with Entamoeba histolytica worked out at 27.8 µM. Also, the selectivity ratio in data set [1] amounted to 10.
Turning to `c1cc(OCCCOc2cccc(-c3nc4ccccc4[nH]3)c2)cc(-c2nc3ccccc3[nH]2)c1`, the half-inhibitory concentration (IC50) in the data set with Trypanosoma cruzi stood at 8.92 µM; in the data set on Plasmodium falciparum, 2.41 µM; in the data set with L6 it was 9.82 µM; in the data set with Leishmania donovani, 3.91 µM; with Giardia intestinalis it was 56.1 µM; in data set [2] it was 8.01 µM. The molecule further gave a half-maximal inhibitory concentration (IC50) in the data set on Entamoeba histolytica of 78.3 µM. Further, in data set [1], the selectivity ratio came out at 4. Moreover, in data set [3], the inhibition entry is “Active”.
As for `c1ccc2[nH]c(-c3ccc(OCOc4ccc(-c5nc6ccccc6[nH]5)cc4)cc3)nc2c1`, the IC50 was 11.3 µM with Trypanosoma cruzi; 0.69 µM in the data set with Plasmodium falciparum; 14.4 µM in the data set on L6; 16.5 µM with Leishmania donovani; 2.13 µM in data set [2]. Moreover, the selectivity ratio in data set [1] was 21.
On to `c1cc(OCCOc2cccc(-c3nc4ccccc4[nH]3)c2)cc(-c2nc3ccccc3[nH]2)c1`, for which the IC50 worked out at 4.68 µM in the data set on Trypanosoma cruzi; 2.58 µM in the data set on Plasmodium falciparum; 5.04 µM in the data set on L6; 24.1 µM in the data set with Leishmania donovani; 11.7 µM in the data set with Giardia intestinalis; 16.6 µM in data set [2]. Further, in the data set on Entamoeba histolytica, the half-maximal inhibitory concentration (IC50) amounted to 84 µM. For the same molecule, the selectivity ratio in data set [1] was 2. Besides, the inhibition result in [3] is “Active”.
